Assays:
[1] = Solubility in ethyl acetate at standard laboratory conditions; format: physicochemical; settings: about 25° C. and 1 atmosphere
Description: A dispersion was prepared containing 1 ezetimibe: 1 PVP K-12 at 1% total solids in ethyl acetate at standard laboratory conditions (about 25° C. and 1 atmosphere).

[2] = Dissolution test, USP apparatus II (paddles), powders in size 1 hard gelatin capsules; format: physicochemical; settings: amount equivalent to 50 mg efavirenz, capsules with additional 15% croscarmellose sodium, 37° C.
Description: A. The dissolution properties of both amorphous compositions were tested and compared to crystalline EFV. An amount equivalent to 50 mg efavirenz was analyzed. Powders were hand-filled into size 1 hard gelatin capsules (Shinogi Qualicaps) with an additional 15% croscarmellose sodium (Ac-Di-Sol®, FMC BioPolymers). USP apparatus II (paddles) (VK 7010®, Varian Inc.) was used, with a bath temperature of 37° C. and a paddle speed of 50 rpm for 60 minutes.
B. Each of the amorphous powders from Examples 1 and 2 achieved higher rate of release and maximum aqueous concentration than the crystalline form (FIG. 6, Table 2). The initial rate of release from the amorphous powders was more than 10-times higher than the crystalline form.

solubility in ethyl acetate [1]	extent of release ([2]; paddle speed 50 rpm for 60 minutes) [%]	rate of release, 0-15 min ([2]; paddle speed 50 rpm, 0-15 min) [mg/min]	Compound
soluble			O=C1[C@H](CC[C@H](O)c2ccc(F)cc2)[C@@H](c2ccc(O)cc2)N1c1ccc(F)cc1 [ezetimibe]
	10	0.13	O=C1Nc2ccc(Cl)cc2[C@@](C#CC2CC2)(C(F)(F)F)O1 [crystalline EFV, efavirenz]
